According to PubChem BioAssay (NCI):
“And” between values parts separate entries of the source, which are not always exact repeats. Equal values may be shown once.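 Briefly, cells in 96-well plates were exposed to five compound concentrations for 48 h, and endpoints were estimated by linear interpolation. GI50: concentration for 50% inhibition of growth. Definition used: TGI = concentration required for complete inhibition of growth.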

Legend:
Test in all cases: NCI tumour cell line growth inhibition, 48 h
786-0 renal = test system: 786-0 renal
A498 renal = test system: A498 renal
A549 NSCLC = test system: A549 NSCLC
ACHN renal = test system: ACHN renal
BT-549 breast = test system: BT-549 breast
CAKI-1 renal = test system: CAKI-1 renal
CCRF-CEM leukemia = test system: CCRF-CEM leukemia
COLO 205 colon = test system: COLO 205 colon
DLD-1 colon = test system: DLD-1 colon
EKVX NSCLC = test system: EKVX NSCLC
HCC-2998 colon = test system: HCC-2998 colon
HCT-15 colon = test system: HCT-15 colon
HL-60(TB) leukemia = test system: HL-60(TB) leukemia
HOP-62 NSCLC = test system: HOP-62 NSCLC
HOP-92 NSCLC = test system: HOP-92 NSCLC
HS 578T breast = test system: HS 578T breast
HT29 colon = test system: HT29 colon
IGROV1 ovarian = test system: IGROV1 ovarian
K-562 leukemia = test system: K-562 leukemia
KM12 colon = test system: KM12 colon
LOX IMVI melanoma = test system: LOX IMVI melanoma
M14 melanoma = test system: M14 melanoma
MALME-3M melanoma = test system: MALME-3M melanoma
MDA-MB-231 breast = test system: MDA-MB-231 breast
MDA-MB-435 = test system: MDA-MB-435
MOLT-4 leukemia = test system: MOLT-4 leukemia
NCI-H226 lung = test system: NCI-H226 lung
NCI-H460 lung = test system: NCI-H460 lung
NCI-H522 lung = test system: NCI-H522 lung
NCI/ADR-RES ovarian = test system: NCI/ADR-RES ovarian
OVCAR-4 ovarian = test system: OVCAR-4 ovarian
OVCAR-5 ovarian = test system: OVCAR-5 ovarian
OVCAR-8 ovarian = test system: OVCAR-8 ovarian
P388 leukemia = test system: P388 leukemia
P388/ADR leukemia = test system: P388/ADR leukemia
PC-3 prostate = test system: PC-3 prostate
RPMI-8226 leukemia = test system: RPMI-8226 leukemia
RXF 393 renal = test system: RXF 393 renal
SF-268 CNS = test system: SF-268 CNS
SF-295 CNS = test system: SF-295 CNS
SF-539 CNS = test system: SF-539 CNS
SK-MEL-5 melanoma = test system: SK-MEL-5 melanoma
SK-OV-3 ovarian = test system: SK-OV-3 ovarian
SN12C renal = test system: SN12C renal
SN12K1 renal = test system: SN12K1 renal
SNB-19 CNS = test system: SNB-19 CNS
SNB-78 CNS = test system: SNB-78 CNS
SR leukemia = test system: SR leukemia
SW-620 colon = test system: SW-620 colon
TK-10 renal = test system: TK-10 renal
U251 CNS = test system: U251 CNS
UACC-257 melanoma = test system: UACC-257 melanoma
UACC-62 melanoma = test system: UACC-62 melanoma
UO-31 renal = test system: UO-31 renal

COc1ccc2c(c1)c1c(C)c3cnccc3c(C)c1n2CCCN
TGI (786-0 renal): 634 nM
GI50 (A498 renal): 317 nM
TGI (A498 renal): 856 nM and 885 nM
GI50 (A549 NSCLC): 18.6 nM
TGI (ACHN renal): 695 nM
TGI (BT-549 breast): 2600 nM
GI50 (CAKI-1 renal): 130 nM and 164 nM
TGI (CAKI-1 renal): 491 nM and 806 nM
GI50 (CCRF-CEM leukemia): 47.2 nM and < 10 nM
GI50 (COLO 205 colon): 82.2 nM
TGI (COLO 205 colon): 751 nM and 259 nM
TGI (DLD-1 colon): 741 nM
GI50 (EKVX NSCLC): 106 nM
TGI (EKVX NSCLC): 771 nM and 405 nM
GI50 (HCC-2998 colon): 75.3 nM
TGI (HCC-2998 colon): 1200 nM and 225 nM
GI50 (HCT-15 colon): 62.4 nM
TGI (HCT-15 colon): 473 nM and 955 nM
GI50 (HL-60(TB) leukemia): 450 nM and 238 nM
TGI (HL-60(TB) leukemia): 977 nM and 1020 nM
GI50 (HOP-62 NSCLC): 18.7 nM
TGI (HOP-62 NSCLC): 984 nM and 279 nM
GI50 (HOP-92 NSCLC): 352 nM
TGI (HOP-92 NSCLC): 739 nM and 1130 nM
TGI (HS 578T breast): 953 nM
GI50 (HT29 colon): < 11.4 nM
TGI (HT29 colon): 734 nM and 182 nM
GI50 (IGROV1 ovarian): 136 nM
TGI (IGROV1 ovarian): 1320 nM and 1180 nM
GI50 (K-562 leukemia): 71.2 nM and 13.9 nM
TGI (K-562 leukemia): 637 nM and 382 nM
GI50 (KM12 colon): 79.8 nM and 29.8 nM
TGI (KM12 colon): 483 nM and 213 nM
TGI (LOX IMVI melanoma): 241 nM
TGI (M14 melanoma): 330 nM
GI50 (MALME-3M melanoma): 225 nM
TGI (MALME-3M melanoma): 1420 nM and 609 nM
TGI (MDA-MB-231 breast): 381 nM
TGI (MDA-MB-435): 190 nM
TGI (MOLT-4 leukemia): 578 nM and 139 nM
GI50 (NCI-H226 lung): 558 nM and 416 nM
TGI (NCI-H226 lung): 1300 nM and 1600 nM
GI50 (NCI-H460 lung): 19.9 nM
TGI (NCI-H460 lung): 282 nM and 135 nM
GI50 (NCI-H522 lung): 85.3 nM
TGI (NCI-H522 lung): 763 nM and 242 nM
GI50 (NCI/ADR-RES ovarian): 217 nM
TGI (NCI/ADR-RES ovarian): 696 nM and 759 nM
GI50 (OVCAR-4 ovarian): 16.1 nM
TGI (OVCAR-4 ovarian): 394 nM and 143 nM
GI50 (OVCAR-5 ovarian): 94.6 nM
TGI (OVCAR-5 ovarian): 1120 nM and 542 nM
GI50 (OVCAR-8 ovarian): 105 nM
TGI (OVCAR-8 ovarian): 741 nM and 892 nM
TGI (P388 leukemia): 98.7 nM
TGI (P388/ADR leukemia): 725 nM
TGI (PC-3 prostate): 302 nM
GI50 (RPMI-8226 leukemia): 93.1 nM and 89.4 nM
TGI (RPMI-8226 leukemia): 443 nM and 555 nM
GI50 (RXF 393 renal): 145 nM
TGI (RXF 393 renal): 168 nM and 307 nM
GI50 (SF-268 CNS): 63.3 nM and 57.7 nM
TGI (SF-268 CNS): 204 nM and 425 nM
GI50 (SF-295 CNS): 147 nM
TGI (SF-295 CNS): 621 nM and 1000 nM
GI50 (SF-539 CNS): 175 nM
TGI (SF-539 CNS): 855 nM and 421 nM
GI50 (SK-MEL-5 melanoma): 282 nM
TGI (SK-MEL-5 melanoma): 746 nM and 1060 nM
GI50 (SK-OV-3 ovarian): 202 nM
TGI (SK-OV-3 ovarian): 1140 nM and 713 nM
GI50 (SN12C renal): 170 nM
TGI (SN12C renal): 916 nM and 1010 nM
TGI (SN12K1 renal): 239 nM
GI50 (SNB-19 CNS): 33.7 nM
TGI (SNB-19 CNS): 1440 nM and 512 nM
TGI (SNB-78 CNS): 653 nM
TGI (SR leukemia): 118 nM
GI50 (SW-620 colon): < 10 nM
TGI (SW-620 colon): 584 nM and 602 nM
TGI (TK-10 renal): 2750 nM
GI50 (U251 CNS): 171 nM and 34 nM
TGI (U251 CNS): 721 nM and 383 nM
TGI (UACC-257 melanoma): 1000 nM and 1690 nM
GI50 (UACC-62 melanoma): 263 nM
TGI (UACC-62 melanoma): 950 nM and 778 nM
GI50 (UO-31 renal): 12.5 nM
TGI (UO-31 renal): 1360 nM and 168 nM
